Experimental data from patent US11510928B2, “Use of mirtazapine in the treatment of inflammatory disorders, autoimmune disease and PBC” (UTI Limited Partnership, priority 2017, dated 2022).

Columns and labels:
[1] = tested on: patients registered in THIN database; experiment: THIN cohort study 1995-2017: incidence of IMIDs according to mirtazapine exposure (Example 9); type: in vivo, human; conditions: THIN 1995-2017
Excerpt: Data source: THIN is a primary care patient oriented electronic medical record (EMR) database. It is one of the largest medical databases in the UK, consisting of prospectively gathered electronic medical records from over 11.1 million patients (˜3.7 million active patients), the equivalent to 75.6 million patient years, from more than 560 general practices in the UK, covering 6.2% of the UK population. All data elements are fully anonymised and validated by Cegedim Strategic Data (CSD)-Medical Research UK. […] Data from participant general practitioners across the UK are exported to THIN administrators and the database is updated every 3 months.
Study cohort: All adult patients (18 years) registered in THIN database starting from Jan. 1, 1995. Since mirtazapine was approved and available in the UK, Europe, and US markets by 1996, all patients who were prescribed mirtazapine with a prescription duration longer than 30 days, were defined as incident cases. We assessed the hazard of developing each studied IMID (CD, UC, psoriasis, MS or RA) separately. […] Similarly, in the same MS cohort, if a patient develops another IMID of interest prior to a diagnosis of MS, the index date of outcome will be the date of MS diagnosis. In all of our cohorts, we will follow patients from study start date until an incident diagnosis of IMID of interest, death, loss to follow-up or end of follow-up.
Inclusion and exclusion criteria: Patients should not have any interruption of registration or leave of practice. Cases with mirtazapine prescription duration of less than 30 days or unknown duration were excluded from the study.
Exposure variable of interest: Our primary exposure variable was mirtazapine. We used Read codes to identify mirtazapine usage, duration, dose, and start date. Our primary outcome was the incident diagnosis of one of the following conditions: Crohn's disease, multiple sclerosis, psoriasis, rheumatoid arthritis, and ulcerative colitis during study follow-up period (1995-2017).
a) Demographic covariates: Pre-specified covariates include age at diagnosis; sex; and cigarette smoking status is defined either (1) current smoker, coded for smoking within 12 months of the index date (condition diagnosis date); (2) ex-smoker, coded for smoking before but not within 12 months of the index date; or (3) never smoked, coded either as a lifetime non-smoker or not recorded as a smoker; alcohol consumption classified as current, former, never consumed alcohol, or unknown status at diagnosis; body mass index (weight in kg and height in m2); and socioeconomic status measured by the Mosaic scale which is a consumer classification scale that captures demographics, lifestyles, and behaviours (10 classes).
b) Depression: Read codes were used to identify patients with major depressive disorder (MDD). Read codes associated with only symptoms of depression, bipolar disorder, mania or hypomania were excluded. MDD was defined as (1) never diagnosed with MDD; (2) past MDD diagnosis prior to 90 days from index date; or (3) current MDD diagnosis if a diagnosis was made within 90 days before or after the index date.
c) Comorbidities: We used the Quality and Outcomes Framework (QOF) Read codes to assess for the following comorbidities: asthma, atrial fibrillation, cancer, chronic kidney disease (stages 3-5), chronic obstructive pulmonary disease, coronary heart disease, dementia, diabetes, epilepsy, heart failure, hypertension, and hypothyroid. […]

[2] = tested on: hepatic macrophages (Kupffer cells), monocytes and B cells; experiment: Intravital microscopy (IVM) of liver after mirtazapine treatment; type: in vivo, mouse
Excerpt: Rationale and Relevant Preliminary Data: The normal liver macrophage pool consists of a large self-renewing, non-migratory population of KCs that are important for maintaining tissue homeostasis^1-3. KCs are situated within the sinusoidal blood flow and are an essential component of hepatic innate immunity, playing key roles in inflammation and defense^2, 4. In addition, KCs fulfill homeostatic functions important for normal liver physiology5. KCs are capable of considerable phenotypic plasticity and are highly sensitive to changes within the hepatic environment, including cytokines^2, 4, 6, 7. In response to environmental cues, KCs are activated and can be polarized along a spectrum between M1-like (induced by IFNγ, TNFα, IL-1β, IL-12, TLR4 agonists) and M2-like (induced by IL-4, IL-13, IL-10) phenotypes^2, 4, 6, 7, and can dynamically shift between these phenotypic extremes in response to changes in their microenvironment^1, 2, 4, 8. This shift is critical for regulating inflammatory and repair processes in the liver^1, 8, 9.

[3] = Liver injury after mirtazapine alone (serum ALT, histology); type: in vivo, mouse; conditions: data not shown
Experimental: Male 8-10 week old C57BL/6 mice (Jackson Labs, Bar Harbor, Me.) were used. All procedures were approved by the University of Calgary Animal Care Committee (protocol numbers AC14-0129 and AC14-0128) and were performed in accordance with the guidelines of the Canadian Council on Animal Care. To delineate the impact of mirtazapine treatment upon liver immune cell numbers and phenotype, and upon cytokine/chemokine networks within the liver, mice were treated with mirtazapine 1-20 mg/kg intraperitoneally^13-15. Mirtazapine was suspended in 1% aqueous solution of Tween 80, whereas the control group received 1% aqueous solution of Tween 80. Blood and liver samples were collected 5 hours post-mirtazapine treatment (or 16 hours post-Con A treatment). The detailed experimental protocols, lists of antibodies and reagents used, flow cytometry gating, and immune cell phenotyping strategies, are described herein.
To assess liver injury, plasma alanine aminotransferase (ALT) activity was measured (Roche-Hitachi Modular-P800 apparatus; Roche, Mannheim, Germany). Additionally, formalin-fixed liver tissue slices were stained with Hematoxylin and Eosin (H&E) for microscopic examination. Extent of liver parenchymal necrosis was quantitated as previously described, using an Olympus XC10 camera (acquired using the Olympus VS-ASW software package; original magnification ×400). […]

[4] = tested on: peripheral blood and splenic B cells; experiment: Peripheral blood and splenic B cells by flow cytometry (Example 6); type: in vivo, mouse; conditions: 20 mg/kg ip, 5 hrs post-treatment
Experimental: Male C57BL/6 mice (age 8-10 wks) were treated with mirt (20 mg/kg ip) or vehicle and livers removed 3-5 hrs later for B cell isolation and characterization by flow cytometry (FACS). Similarly peripheral blood and splenic B cells numbers were determined by FACS. Liver cytokine and chemokine levels were measured by Luminex®.

CN1CCN2c3ncccc3Cc3ccccc3C2C1 (centres unmarked) [Mirtazapine]
Adjusted incidence rate ratio, Multiple sclerosis ([1]; N = 371, P = 0.006): 0.80 (0.71-0.88)
Adjusted incidence rate ratio, Crohn's Disease ([1]; N = 490, P = 0.89): 1.00 (0.93-1.07)
Adjusted incidence rate ratio, Ulcerative Colitis ([1]; N = 1375, P = 0.002): 0.84 (0.81-0.88)
Adjusted incidence rate ratio, R. arthritis ([1]; N = 1792, P < 0.001): 0.55 (0.51-0.60)
Adjusted incidence rate ratio, Psoriasis ([1]; N = 5181, P = 0.002): 0.93 (0.88-0.98)
Interactions between hepatic B cells (CD19+) and hepatic macrophages (F4/80+) ([2]; 20 mg/kg, 3 hrs post-treatment, preliminary data): trend towards increased interactions
Kupffer cell (F4/80+) activation: retraction of cellular processes, rounding of cell shape ([2]; 1 hr after treatment (FIG. 14)): activation of KCs
Hepatic monocyte populations in CCR2RFP/+CX3CR1GFP/+ reporter mice ([2]; ~20 hrs post-treatment, pilot study): apparent increase in overall hepatic monocyte numbers coupled with the appearance of CCR2+CX3CR1+ double positive monocytes
Liver injury as reflected by serum ALT levels or histology [3]: did not induce liver injury
Peripheral blood B cells (as % of total CD45+ leukocytes) [4]: highly significant drop
Splenic B cell numbers [4]: paralleled by similar changes
